Measurements published in the NIST ThermoML archive (doi:10.1021/acs.jced.5b00986).
± gives the expanded uncertainty stated by the source.

Details: Liquid, Dynamic light scattering

Row | thermal diffusivity (423.73 K) [m2/s] | thermal diffusivity (448.23 K) [m2/s] | thermal diffusivity (473.1 K) [m2/s] | thermal diffusivity (498.16 K) [m2/s] | thermal diffusivity (523.18 K) [m2/s] | thermal diffusivity (448.09 K) [m2/s] | thermal diffusivity (448.57 K) [m2/s] | thermal diffusivity (473.26 K) [m2/s] | SMILES
1 | 5.83e-08 ± 3e-09 | 5.23e-08 ± 2.2e-09 | 4.87e-08 ± 2e-09 | 4.58e-08 ± 3.4e-09 | 4.25e-08 ± 2.6e-09 |  |  |  | CCCCCCCCCCCC [dodecane]
2 |  |  |  |  |  | 6.57e-08 ± 3.4e-09 | 6.73e-08 ± 4.3e-09 | 6.86e-08 ± 8e-09 | CCCCCCCCCCCCCCCCCCCCCCCCCCCCCCCCCCCCCCCC [tetracontane]
